Test results as given in patent US8703483B2, “Reagents and methods for using human embryonic stem cells to evaluate toxicity of pharmaceutical compounds and other chemicals” (Wisconsin Alumni Research Foundation, priority 2006, dated 2014).

How the values were obtained:
[1] = supplementation prior to pregnancy; cited from earlier work
[2] = system: human embryonic stem cells; experiment: Viability and pluripotency (Oct-4, morphology) of hESCs after valproate exposure; assay type: cell-based; settings: hESCs remained viable for multiple passages following exposure
[3] = system: undifferentiated human embryonic stem cells (H1 and H9 hESC); experiment: Metabolite profiling (LC/ESI-TOF-MS) of supernatant of hESCs treated with valproate; assay type: cell-based
Description: Masses were binned together if they were within 10 ppm and eluted within a 2 minutes retention time window. […] Binning of the data is required for statistical analysis and comparison of masses across the entire experiment. If multiple peaks with the same mass at the same retention time within a single sample were detected by Mass Hunter, they were averaged to assist data analysis.
As used herein, a mass was considered to be the same across LC/ESI-TOF-MS runs using a simple algorithm that first sorts the data by mass and retention time. […] If a series of measurements fit this definition it was considered to be from the same compound. If either the mass or the retention time varied by more than the limits listed above it was considered to be a different compound and given a new unique designation.

[4] = system: neuronal precursors derived from hESCs; experiment: Metabolite profiling of neural precursors derived from hESCs treated with valproate; assay type: cell-based, human; settings: 1 mM valproate
From the text: Metabolomic assessment of teratogens on embryonic development is not limited exclusively to hESCs.

[5] = system: H1/NIH code WA01 hES cells; experiment: Quantitative real-time PCR of epigenetic regulators and developmental genes in VPA-treated hESCs; assay type: cell-based, human; settings: 1 mM VPA treated
Description: Treated and control H1/NIH code WA01 hES cells (passage 41) were analyzed by real-time PCR, and each treatment group was paired with a corresponding control group that received the standard growth media combination of CM+bFGF without VPA. In these studies, total cellular RNA was extracted from cells harvested at 24 hours (24 H), 4 days (4 D) and 8 days (EC) using the RNA Easy Kit (Qiagen, Valencia, Calif.) according to the manufacturer's instructions.
Expression levels of candidate test genes and a housekeeping gene (Beta-2-microglobulin) were evaluated by quantitative real-time PCR using a DNA Engine-Opticon 2 Detection System (MJ Research, Watertown, Mass.). The housekeeping gene acts as an internal control for normalization of RNA levels. The primers used for real-time PCR reactions were designed using Beacon Designer software (Premier Biosoft International, Palo Alto, Calif.). RNA was reverse transcribed using iScript cDNA Synthesis kit (Bio-Rad, Hercules, Calif.), wherein each cDNA synthesis reaction (20 μL) included 4 μL of 5× iScript reaction mix, 1 μL of iScript reverse transcriptase, and 2 μL of RNA. PCR was performed on cDNA in PCR reaction mixtures (25 μL) each containing 12.5 μL of Supermix (contains dNTPs, Taq DNA polymerase, SYBR Green I, and fluorescein), 250 nM forward primer, 250 nM reverse primer, and 1.6 μL RT-PCR products. Melting curve analysis and agarose gel electrophoresis were performed after real-time PCR reaction to monitor PCR specificity, wherein PCR products were detected with SYBR Green I using the iQ SYBR Green Supermix kit (Bio-Rad).
Quantifying the relative expression of real-time PCR was performed using the 2-ΔΔCt method (Livak & Schmittgen, 2001, Methods 25:402-8), and a general linear model was employed to fit the expression data. The PROC GLM procedure in SAS (version 8.2; SAS Institute, Cary, N.C.) was used to estimate least squares means in expression between treated and untreated hESCs and P<0.05 was considered statistically significant
Real-time PCR was conducted on samples from 24 hours (24 H), 4 days (4 D) and 8 days (EC) after VPA treatment to investigate expression levels of epigenetic regulators (such as DNA methyltransferase-1, DNMT-1, BMI-1, EED) and critical transcription factors responsible for embryonic patterning and neurodevelopment (RUNX2, BMP7, FGF8, CBX2, GLI3, SSH and SP8) in human embryonic stem cells.

[6] = system: human embryonic stem cells; experiment: Metabolite profiling (LC/ESI-TOF mass spectrometry) of extracellular media of hESCs treated with alcohol; assay type: cell-based; settings: for Putative kynurenine (exact neutral mass 208.0816) upregulation: day four
From the text: Binned masses were annotated in silico by querying the neutral masses in several different databases. These databases included Metlin, Biological Magnetic Resonance Data Bank (BMRB), NIST Chemistry WebBook, and the Human Metabolome Database. A mass was considered identified when its neutral mass was within 10 ppm of a known compound annotated in one of the databases listed above.

[7] = 0.3% alcohol, four days, p<0.05

Nc1nc2ncc(CNc3ccc(C(=O)N[C@@H](CCC(=O)O)C(=O)O)cc3)nc2c(=O)[nH]1 [Folic acid]
Reduction of the incidence of spina bifida [1]: 70%

CCCC(CCC)C(=O)O [valproate]
Effect of treatment on hESC viability [2]: not detrimental | Compounds with statistically-significant differences in at least one time point ([3]; 22 μM valproate, of 3,241 mass signals (3%)): 110 compounds | Small molecules absent in treated groups ([3]; VPA, 24 hours, vs untreated controls): approximately 40 | Compounds differentially secreted in treated neuronal precursors versus control [4]: Approximately 135 compounds | BMI-1 gene expression level (target gene/Beta-2-Microglobulin) ([5]; 4 D): 0.112 | BMP7 gene expression level (target gene/Beta-2-Microglobulin) ([5]; 4 D): 0.342 | CBX2 gene expression level (target gene/Beta-2-Microglobulin) ([5]; 4 D): 1.1881 | DNMT1 gene expression level (target gene/Beta-2-Microglobulin) ([5]; 4 D): 0.002 | EED gene expression level (target gene/Beta-2-Microglobulin) ([5]; 4 D): 0.185 | GLI3 gene expression level (target gene/Beta-2-Microglobulin) ([5]; 4 D): 0.774 | H19 gene expression level (target gene/Beta-2-Microglobulin) ([5]; 4 D): 0.846 | RUNX2 gene expression level (target gene/Beta-2-Microglobulin) ([5]; 4 D): 4.020 | SP8 gene expression level (target gene/Beta-2-Microglobulin) ([5]; 4 D): 1.703 | Shh gene expression level (target gene/Beta-2-Microglobulin) ([5]; 4 D): 0.533 | BMI-1 gene expression level (target gene/Beta-2-Microglobulin) ([5]; 24 H): 0.252 | BMP7 gene expression level (target gene/Beta-2-Microglobulin) ([5]; 24 H): 0.093 | CBX2 gene expression level (target gene/Beta-2-Microglobulin) ([5]; 24 H): 0.245 | DNMT1 gene expression level (target gene/Beta-2-Microglobulin) ([5]; 24 H): 0.624 | EED gene expression level (target gene/Beta-2-Microglobulin) ([5]; 24 H): 0.342 | FGF8 gene expression level (target gene/Beta-2-Microglobulin) ([5]; 24 H): 0.801 | GLI3 gene expression level (target gene/Beta-2-Microglobulin) ([5]; 24 H): 0.015 | H19 gene expression level (target gene/Beta-2-Microglobulin) ([5]; 24 H): 0.006 | RUNX2 gene expression level (target gene/Beta-2-Microglobulin) ([5]; 24 H): 1.769 | SP8 gene expression level (target gene/Beta-2-Microglobulin) ([5]; 24 H): 0.235 | Shh gene expression level (target gene/Beta-2-Microglobulin) ([5]; 24 H): 0.562 | BMI-1 gene expression level (target gene/Beta-2-Microglobulin) ([5]; EC (8 days)): 1.071 | BMP7 gene expression level (target gene/Beta-2-Microglobulin) ([5]; EC (8 days)): 1.664 | CBX2 gene expression level (target gene/Beta-2-Microglobulin) ([5]; EC (8 days)): 1.946 | DNMT1 gene expression level (target gene/Beta-2-Microglobulin) ([5]; EC (8 days)): 1.124 | EED gene expression level (target gene/Beta-2-Microglobulin) ([5]; EC (8 days)): 1.769 | FGF8 gene expression level (target gene/Beta-2-Microglobulin) ([5]; EC (8 days)): 0.837 | GLI3 gene expression level (target gene/Beta-2-Microglobulin) ([5]; EC (8 days)): 1.918 | H19 gene expression level (target gene/Beta-2-Microglobulin) ([5]; EC (8 days)): 2.756 | RUNX2 gene expression level (target gene/Beta-2-Microglobulin) ([5]; EC (8 days)): 2.434 | SP8 gene expression level (target gene/Beta-2-Microglobulin) ([5]; EC (8 days)): 5.808

CCO [ethanol, reference compound]
8-methoxykynurenate (219.0532) change ([6]; 0.1% alcohol, four days, p<0.05): upregulated | Putative kynurenine (exact neutral mass 208.0816) upregulation ([6]; 0.1% treatment, p=0.001): three-fold | Compounds significantly different (p<0.05) in at least one treatment ([6]; 0.1 and 0.3% ethanol, of 49,481 mass signals): 1,860 compounds | 5-hydroxy-L-tryptophan (220.0848) change in comparison to untreated controls [6, 7]: significant downregulation | 8-methoxykynurenate (219.0532) change [6, 7]: upregulated | Putative kynurenine (exact neutral mass 208.0816) upregulation ([6]; 0.3% treatment, p=0.002): three-fold
